Data on four molecules can be found in patent publication US11945812B2, “Annulated 2-amino-3-cyano thiophenes and derivatives for the treatment of cancer” (Boehringer Ingelheim International GmbH, priority 2020, dated 2024).

Each structure is given as a SMILES string.

Chain of Ba/F3 cells bearing a KRAS G12C mutation (P01116 whole entry G12C): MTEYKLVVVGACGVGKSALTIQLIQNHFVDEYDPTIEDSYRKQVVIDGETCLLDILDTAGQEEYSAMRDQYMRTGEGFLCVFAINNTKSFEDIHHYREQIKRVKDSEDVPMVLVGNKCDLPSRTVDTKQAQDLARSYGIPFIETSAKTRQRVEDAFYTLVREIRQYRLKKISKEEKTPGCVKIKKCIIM

The first assay concerns NCI-H358 cells. The assay is described as follows: NCI-H358 CTG proliferation assay (120 h) (NSCLC). Type of assay: cell-based. Conditions: Homo sapiens, read-out: IC50 NCl-H358. The protocol: NCI-H358 CTG Proliferation Assay (120 h) (NSCLC)
NCI-H358 cells (ATCC No. CRL-5807) were dispensed into white bottom opaque 96 well plates (Perkin Elmer cat no. 5680) at a density of 2000 cells per well in 100 μL RPMI-1640 ATCC-Formulation (Gibco # A10491)+10% FCS. Cells were incubated overnight at 37° C. in a humidified tissue culture incubator at 5% CO2. Compounds (10 mM stock in DMSO) were added at logarithmic dose series using the HP Digital Dispenser D300 (Tecan), normalizing for added DMSO. For the TO time point measurement, untreated cells were analyzed at the time of compound addition. Plates were incubated for 120 hours, and cell viability was measured using CellTiter-Glo luminescent cell viability reagent (Promega product code G7570). Viability (stated as percent of control) is defined as relative luminescence units RLU of each well divided by the RLU of cells in DMSO controls. IC50 values were determined from viability measurements by non-linear regression using a four parameter model.
Turning to `C=C(F)C(=O)N1[C@@H](C)CN(c2cc(O[C@@H](C)[C@@H]3CCCN3C)nc(-c3cc([C@@]4(C)CCCc5sc(N)c(C#N)c54)no3)n2)C[C@@H]1C` [Ic-8], the 50% inhibitory concentration (IC50) amounted to 93.5 nM.

On to `C=CC(=O)N1CCN(c2cc(O[C@@H](C)[C@@H]3CCCN3C)nc(-c3cc([C@@]4(C)CCCc5sc(N)c(C#N)c54)sn3)n2)CC1` [Id-1], for which the half-inhibitory concentration (IC50) worked out at 0.44 nM.

Turning to `C=CC(=O)N1CCN(c2cc(O[C@@H](C)[C@@H]3CCCN3C)nc(-c3cc([C@@]4(C)CCCc5sc(N)c(C#N)c54)sn3)n2)CC12CC2` [Id-5], the concentration for half-maximal inhibition (IC50) was 5.98 nM.

Consider `C=CC(=O)N1CCC(Oc2cc(O[C@@H](C)[C@@H]3CCCN3C)nc(-c3cc([C@@]4(C)CCCc5sc(N)c(C#N)c54)sn3)n2)CC1` [Id-6], for which the IC50 came out at 0.93 nM.

For a further assay, the target named is Ba/F3 cells bearing a KRAS G12C mutation (Homo sapiens, UniProt P01116, G12C, cells depend on it). The assay is described as follows: Ba/F3 cell model proliferation assay (AlamarBlue, 72 h). It is filed as cell-based. Conditions: Ba/F3 KRAS G12C cells, 72 h, 10% FCS, uncorrected; read-out: IC50 Ba/F3 KRASG12C. The protocol:
Ba/F3 Cell Model Generation and Proliferation Assay
Plasmids containing KRASG12 mutants were obtained from GeneScript. To generate KRASG12-dependent Ba/F3 models, Ba/F3 cells were transduced with retroviruses containing vectors that harbor KRASG12 isoforms. Platinum-E cells (Cell Biolabs) were used for retrovirus packaging. Retrovirus was added to Ba/F3 cells. To ensure infection, 4 μg/mL polybrene was added and cells were spinfected. […] Cells with an infection efficiency of 10% to 20% were further cultivated and puromycin selection with 1 μg/mL was initiated. As a control, parental Ba/F3 cells were used to show selection status. Selection was considered successful when parental Ba/F3 cells cultures died. To evaluate the transforming potential of KRASG12 mutations, the growth medium was no longer supplemented with IL-3. Ba/F3 cells harboring the empty vector were used as a control. Approximately ten days before conducting the experiments, puromycin was left out.
All treatments were performed in technical duplicates. The assay is run using a fully automated robotic system. Treated cells were incubated for 72 h at 37° C. with 5% CO2. AlamarBlue™ (ThermoFisher), a viability stain, was added and fluorescence measured in the PerkinElmer Envision HTS Multilabel Reader.
For `C=C(F)C(=O)N1[C@@H](C)CN(c2cc(O[C@@H](C)[C@@H]3CCCN3C)nc(-c3cc([C@@]4(C)CCCc5sc(N)c(C#N)c54)no3)n2)C[C@@H]1C` [Ic-8], the GI50 amounted to 35.6 nM.

As for `C=CC(=O)N1CCN(c2cc(O[C@@H](C)[C@@H]3CCCN3C)nc(-c3cc([C@@]4(C)CCCc5sc(N)c(C#N)c54)sn3)n2)CC1` [Id-1], the GI50 is 0.4 nM.

With `C=CC(=O)N1CCN(c2cc(O[C@@H](C)[C@@H]3CCCN3C)nc(-c3cc([C@@]4(C)CCCc5sc(N)c(C#N)c54)sn3)n2)CC12CC2` [Id-5], the GI50 came out at 3.2 nM.

With `C=CC(=O)N1CCC(Oc2cc(O[C@@H](C)[C@@H]3CCCN3C)nc(-c3cc([C@@]4(C)CCCc5sc(N)c(C#N)c54)sn3)n2)CC1` [Id-6], the GI50 was found to be 0.2 nM.

The same assay, now with this note: corrected by plasma protein binding in 10% FCS (fraction unbound); read-out: IC50 Ba/F3 KRASG12C (corrected).
Turning to `C=C(F)C(=O)N1[C@@H](C)CN(c2cc(O[C@@H](C)[C@@H]3CCCN3C)nc(-c3cc([C@@]4(C)CCCc5sc(N)c(C#N)c54)no3)n2)C[C@@H]1C` [Ic-8], the GI50 was determined as 2.78 nM.

As to `C=CC(=O)N1CCN(c2cc(O[C@@H](C)[C@@H]3CCCN3C)nc(-c3cc([C@@]4(C)CCCc5sc(N)c(C#N)c54)sn3)n2)CC1` [Id-1], the GI50 was determined as 0.19 nM.

Regarding `C=CC(=O)N1CCN(c2cc(O[C@@H](C)[C@@H]3CCCN3C)nc(-c3cc([C@@]4(C)CCCc5sc(N)c(C#N)c54)sn3)n2)CC12CC2` [Id-5], the GI50 came to 1.08 nM.

As to `C=CC(=O)N1CCC(Oc2cc(O[C@@H](C)[C@@H]3CCCN3C)nc(-c3cc([C@@]4(C)CCCc5sc(N)c(C#N)c54)sn3)n2)CC1` [Id-6], the GI50 stood at 0.1 nM.

For the next assay, the system named is MiaPaCa-2 cells. The assay is described as follows: MiaPaCa-2 CTG proliferation assay (pancreatic cancer). Type of assay: cell-based. Conditions: Homo sapiens, MIA PaCa-2, 120 h; MiaPaCa-2 CTG proliferation, 5 days; read-out: IC50 MiaPACA2. How it is done:
MiaPaCa-2 CTG Proliferation Assay (Pancreatic Cancer)
MiaPaCa-2 cells (ATCC® CRM-CRL-1420™) were grown in cell culture flasks (175 cm^2) using DMEM medium supplemented with 10% fetal bovine serum. […] Materials used for the assay were CulturPlate-384, White Opaque 384-well microplate, Sterile and Tissue Culture Treated (Perkin Elmer #6007680), DMEM medium and FBS # SH30071.03 (HyClone).
(§1) The proliferation assays started (day1) with seeding cells in flat bottom 384 well microtiter plates in 90 μL DMEM medium supplemented with 10% FBS at a density of 500 cells/well. Any other luminescence compatible plate format is possible. On day 2, 10 μL dilutions of the test compounds covering a concentration range between app. 0, 1 and 10.000 nM were added to the cells. Cells were incubated for 5 days in a humidified, incubator with 5% CO2 at 37° C. On day 7 100 μl of Cell Titer Glow reagent (Cell titer Glo Luminescent Cat. No. G7571, Promega) were added to each well and incubated for additional 10 min at room temperature (with agitation). Luminescence was measured on a Wallac Victor using standard luminescence read out. IC50 values were calculated using standard Levenburg Marquard algorithms (GraphPad Prism).
Turning to `C=C(F)C(=O)N1[C@@H](C)CN(c2cc(O[C@@H](C)[C@@H]3CCCN3C)nc(-c3cc([C@@]4(C)CCCc5sc(N)c(C#N)c54)no3)n2)C[C@@H]1C` [Ic-8], the IC50 stood at 396 nM.

For `C=CC(=O)N1CCN(c2cc(O[C@@H](C)[C@@H]3CCCN3C)nc(-c3cc([C@@]4(C)CCCc5sc(N)c(C#N)c54)sn3)n2)CC1` [Id-1], the half-inhibitory concentration (IC50) came out at 2.25 nM.

On to `C=CC(=O)N1CCN(c2cc(O[C@@H](C)[C@@H]3CCCN3C)nc(-c3cc([C@@]4(C)CCCc5sc(N)c(C#N)c54)sn3)n2)CC12CC2` [Id-5], for which the half-inhibitory concentration (IC50) is 26.9 nM.

On to `C=CC(=O)N1CCC(Oc2cc(O[C@@H](C)[C@@H]3CCCN3C)nc(-c3cc([C@@]4(C)CCCc5sc(N)c(C#N)c54)sn3)n2)CC1` [Id-6], for which the IC50 was 13.8 nM.

In a further assay the test system is SW837 cells. The assay is described as follows: SW837 CTG proliferation assay (CRC). Type of assay: cell-based. Conditions: Homo sapiens; SW837 CTG proliferation; read-out: IC50 SW837. The protocol:
SW837 CTG Proliferation Assay (CRC)
SW837 cells (ATCC #CCL-235) were grown in cell culture flasks (175 cm^2) using L-15 10% FCS, 1% L-Glu, 1×NEAA and 1×Na-Pyrovat. Cultures were incubated at 37° C. and 0% CO2 in a humidified atmosphere, with medium change or subcultivation 2-3 times a week. Materials used for the assay were CulturPlate-384, White Opaque 384-well Microplate, Sterile and Tissue Culture Treated (Perkin Elmer #6007680), Leibovitz L15 Medium and FBS # SH30071.03 (HyClone).
as §1, with “L-15” for “DMEM medium supplemented with”, “FCS, 1% L-Glu, 1×NEAA and 1× Na-Pyrovat” for “FBS”, “humidified, CO2 controlled (no CO2)” for “humidified,”, “incubator” for “incubator with 5% CO2”, “μL” for “μl”
With `C=C(F)C(=O)N1[C@@H](C)CN(c2cc(O[C@@H](C)[C@@H]3CCCN3C)nc(-c3cc([C@@]4(C)CCCc5sc(N)c(C#N)c54)no3)n2)C[C@@H]1C` [Ic-8], the concentration for half-maximal inhibition (IC50) stood at 36.6 nM.

As to `C=CC(=O)N1CCN(c2cc(O[C@@H](C)[C@@H]3CCCN3C)nc(-c3cc([C@@]4(C)CCCc5sc(N)c(C#N)c54)sn3)n2)CC1` [Id-1], the IC50 is 0.2 nM.

On to `C=CC(=O)N1CCN(c2cc(O[C@@H](C)[C@@H]3CCCN3C)nc(-c3cc([C@@]4(C)CCCc5sc(N)c(C#N)c54)sn3)n2)CC12CC2` [Id-5], for which the IC50 turned out to be 0.8 nM.

With `C=CC(=O)N1CCC(Oc2cc(O[C@@H](C)[C@@H]3CCCN3C)nc(-c3cc([C@@]4(C)CCCc5sc(N)c(C#N)c54)sn3)n2)CC1` [Id-6], the half-maximal inhibitory concentration (IC50) came out at 0.35 nM.

The test system of another assay is ERK phosphorylation in NCI-H358_Cas9_SOS2. The assay is described as follows: ERK phosphorylation assay 2 (AlphaLISA SureFire Ultra p-ERK1/2), SOS2 knock-out. Conditions: Homo sapiens, NCI-H358; assay 2 (marked with *); read-out: IC50 H358 pERK. Type of assay: cell-based. From the text: ERK Phosphorylation Assay
Materials Used for the Assay;
On the technique in general: Bead proximity is the source of the signal in Alpha formats.
Regarding `C=C(F)C(=O)N1[C@@H](C)CN(c2cc(O[C@@H](C)[C@@H]3CCCN3C)nc(-c3cc([C@@]4(C)CCCc5sc(N)c(C#N)c54)no3)n2)C[C@@H]1C` [Ic-8], the half-maximal inhibitory concentration (IC50) came out at 134 nM.

For the molecule `C=CC(=O)N1CCN(c2cc(O[C@@H](C)[C@@H]3CCCN3C)nc(-c3cc([C@@]4(C)CCCc5sc(N)c(C#N)c54)sn3)n2)CC1` [Id-1], the IC50 turned out to be 0.7 nM.

Turning to `C=CC(=O)N1CCN(c2cc(O[C@@H](C)[C@@H]3CCCN3C)nc(-c3cc([C@@]4(C)CCCc5sc(N)c(C#N)c54)sn3)n2)CC12CC2` [Id-5], the half-maximal inhibitory concentration (IC50) stood at 3.1 nM.

With `C=CC(=O)N1CCC(Oc2cc(O[C@@H](C)[C@@H]3CCCN3C)nc(-c3cc([C@@]4(C)CCCc5sc(N)c(C#N)c54)sn3)n2)CC1` [Id-6], the IC50 turned out to be 1.1 nM.

As usually defined, the IC50 is the concentration that inhibits the measured activity by half.
